Reference: PMC8710297, “Identification of potent SENP1 inhibitors that inactivate SENP1/JAK2/STAT signaling pathway and overcome platinum drug resistance in ovarian cancer” (Clinical and Translational Medicine, 2021)
≈ marks a conversion by molar mass, not a printed value.

Assay: Water solubility determination (HPLC)
Format: physicochemical
Settings: thermodynamic from solid, ultra-pure water, room temperature
Protocol: at room tem p eratu re fo r 2 h. After centrifu gation at 3000×g fo r 10 min, the supernatant wa s transferred into a sample vial and dried with Sp ee d vac (Fish er Scientific). So lu ti on s fo r standards were prepared by using a series of different concentrations of ursolic acid (i.e., 0.1, 0.5, 1.0, 2. 0, 5.0 ug /mL in methanol ). Ea c h sample was in jec ted fo r analysis by liq uid chromatography‐tan dem mass spectrometry (UPLC‐MS/MS) with multip le react io n monitor ing (MRM) mode. (2) UPLC‐MS/MS analysis Sa m ples were analyzed wi t h Acquity UPLC syste m (Waters) cou ple d wi t h a Q‐TRAP 6500 mass spectrometer (Sciex). Spe cifically, 5 μL of each sample wa s loaded onto a C18 column (Waters Acquity UPLC BEH C18 1.7μm, 2.1mm x 50 mm). […]
Mass spectra were recorded with Analyst TF 1.6.2 software in th e MRM mode (Q1 mass: 455 Da, Q3 mass:455.1 Da , Time:100 ms, CE: ‐20, DP: ‐50: EP:‐ 7, CXP: ‐12). (3) Data analysis: Data files we re analyzed with quantitated with the “Quantitation Method” in th e An al yst software […]
slid e at a flow ra te of 25 μL/ min wi th 110 s contac t time and 250 s dissociation time. Th e background re s p o ns e was recorded using th e refere nce flow channel, and the background data wa s subtracted from the data fro m each injection sample. […]

solubility at 24 h: 39.7 µg/mL (≈ 69.5 µM)
Structure (SMILES): C[C@H]1[C@H](C)CC[C@]2(C(=O)NCC(=O)N(C)CCO)CC[C@]3(C)C(=CC[C@@H]4[C@@]5(C)CC[C@H](O)C(C)(C)[C@@H]5CC[C@]43C)[C@H]12 [UAMMC9]
